Assay results reported in PubChem BioAssay (NCI).
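Step 1: Grow cells in 96-well plates. Step 2: Expose to compound for 48 hours at 5 concentrations. Step 3: Interpolate endpoints linearly; if unreached, use highest concentration. GI50 is the concentration that inhibits growth by half. TGI: total growth inhibition.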

Tests used:
Experiment in all cases: NCI anticancer screen, dose series, 48 h
NCI-H226 lung = test system: NCI-H226 lung
OVCAR-4 ovarian = test system: OVCAR-4 ovarian
MALME-3M melanoma = test system: MALME-3M melanoma
SN12C renal = test system: SN12C renal
HS 578T breast = test system: HS 578T breast
U251 CNS = test system: U251 CNS
A549 NSCLC = test system: A549 NSCLC
CAKI-1 renal = test system: CAKI-1 renal
DU-145 prostate = test system: DU-145 prostate
MDA-MB-231 breast = test system: MDA-MB-231 breast
PC-3 prostate = test system: PC-3 prostate
NCI-H522 lung = test system: NCI-H522 lung
SF-268 CNS = test system: SF-268 CNS
RPMI-8226 leukemia = test system: RPMI-8226 leukemia
SNB-75 CNS = test system: SNB-75 CNS
UACC-62 melanoma = test system: UACC-62 melanoma
SR leukemia = test system: SR leukemia
OVCAR-3 ovarian = test system: OVCAR-3 ovarian
T-47D breast = test system: T-47D breast
IGROV1 ovarian = test system: IGROV1 ovarian
HOP-62 NSCLC = test system: HOP-62 NSCLC
SF-539 CNS = test system: SF-539 CNS
NCI-H460 lung = test system: NCI-H460 lung
HCT-116 colon = test system: HCT-116 colon
EKVX NSCLC = test system: EKVX NSCLC
786-0 renal = test system: 786-0 renal
NCI/ADR-RES ovarian = test system: NCI/ADR-RES ovarian
KM12 colon = test system: KM12 colon
OVCAR-5 ovarian = test system: OVCAR-5 ovarian
LOX IMVI melanoma = test system: LOX IMVI melanoma
MDA-MB-435 = test system: MDA-MB-435
M14 melanoma = test system: M14 melanoma
SW-620 colon = test system: SW-620 colon
NCI-H23 lung = test system: NCI-H23 lung
MCF7 breast = test system: MCF7 breast
K-562 leukemia = test system: K-562 leukemia
HT29 colon = test system: HT29 colon
A498 renal = test system: A498 renal
SK-MEL-28 melanoma = test system: SK-MEL-28 melanoma
SNB-19 CNS = test system: SNB-19 CNS
UO-31 renal = test system: UO-31 renal
OVCAR-8 ovarian = test system: OVCAR-8 ovarian
SK-OV-3 ovarian = test system: SK-OV-3 ovarian
HCT-15 colon = test system: HCT-15 colon
CCRF-CEM leukemia = test system: CCRF-CEM leukemia
MOLT-4 leukemia = test system: MOLT-4 leukemia
UACC-257 melanoma = test system: UACC-257 melanoma
HL-60(TB) leukemia = test system: HL-60(TB) leukemia
BT-549 breast = test system: BT-549 breast
SK-MEL-5 melanoma = test system: SK-MEL-5 melanoma
ACHN renal = test system: ACHN renal
HCC-2998 colon = test system: HCC-2998 colon
RXF 393 renal = test system: RXF 393 renal
COLO 205 colon = test system: COLO 205 colon
SF-295 CNS = test system: SF-295 CNS
HOP-92 NSCLC = test system: HOP-92 NSCLC
MDA-MB-468 breast = test system: MDA-MB-468 breast
TK-10 renal = test system: TK-10 renal
SK-MEL-2 melanoma = test system: SK-MEL-2 melanoma

Q: How did the GI50 (NCI-H226 lung) turn out when `COc1ccc2[nH]c(O)c(N=Nc3nc(-c4ccccc4)cs3)c2c1` was run?
A: 2.65 µM

Q: And the TGI (NCI-H226 lung)?
A: 13.4 µM

Q: And the GI50 (OVCAR-4 ovarian)?
A: 1.98 µM

Q: And the TGI (OVCAR-4 ovarian)?
A: 5.07 µM

Q: What about the GI50 (MALME-3M melanoma) of the same compound?
A: 2.51 µM

Q: And the TGI (MALME-3M melanoma)?
A: 13.1 µM

Q: What about the GI50 (SN12C renal) of the same compound?
A: 2.5 µM

Q: What about the TGI (SN12C renal) of the same compound?
A: 17.7 µM

Q: And the GI50 (HS 578T breast)?
A: 4.27 µM

Q: What about the TGI (HS 578T breast) of the same compound?
A: 42.9 µM

Q: And the GI50 (U251 CNS)?
A: 2.62 µM

Q: And the TGI (U251 CNS)?
A: 6.97 µM

Q: And the GI50 (A549 NSCLC)?
A: 2.76 µM

Q: And the TGI (A549 NSCLC)?
A: 11.3 µM

Q: What about the GI50 (CAKI-1 renal) of the same compound?
A: 3.85 µM

Q: What about the TGI (CAKI-1 renal) of the same compound?
A: 16.7 µM

Q: And the GI50 (DU-145 prostate)?
A: 4.31 µM

Q: And the TGI (DU-145 prostate)?
A: 17.5 µM

Q: What about the GI50 (MDA-MB-231 breast) of the same compound?
A: 2.66 µM

Q: And the TGI (MDA-MB-231 breast)?
A: 12.7 µM

Q: And the GI50 (PC-3 prostate)?
A: 4.57 µM

Q: What about the TGI (PC-3 prostate) of the same compound?
A: > 100 µM

Q: And the GI50 (NCI-H522 lung)?
A: 2.29 µM

Q: And the TGI (NCI-H522 lung)?
A: 9.63 µM

Q: What about the GI50 (SF-268 CNS) of the same compound?
A: 3.1 µM

Q: What about the TGI (SF-268 CNS) of the same compound?
A: 11.8 µM

Q: What about the GI50 (RPMI-8226 leukemia) of the same compound?
A: 14.4 µM

Q: And the TGI (RPMI-8226 leukemia)?
A: > 100 µM

Q: What about the GI50 (SNB-75 CNS) of the same compound?
A: 2.64 µM

Q: And the TGI (SNB-75 CNS)?
A: 16.2 µM

Q: And the GI50 (UACC-62 melanoma)?
A: 2.54 µM

Q: What about the TGI (UACC-62 melanoma) of the same compound?
A: 38.7 µM

Q: And the GI50 (SR leukemia)?
A: 4.55 µM

Q: What about the TGI (SR leukemia) of the same compound?
A: > 100 µM

Q: What about the GI50 (OVCAR-3 ovarian) of the same compound?
A: 3.06 µM

Q: And the TGI (OVCAR-3 ovarian)?
A: 12.5 µM

Q: What about the GI50 (T-47D breast) of the same compound?
A: 2.78 µM

Q: And the TGI (T-47D breast)?
A: 15.8 µM

Q: And the GI50 (IGROV1 ovarian)?
A: 5.04 µM

Q: And the TGI (IGROV1 ovarian)?
A: 31.9 µM

Q: What about the GI50 (HOP-62 NSCLC) of the same compound?
A: 5.26 µM

Q: What about the TGI (HOP-62 NSCLC) of the same compound?
A: 30.3 µM

Q: What about the GI50 (SF-539 CNS) of the same compound?
A: 2.65 µM

Q: What about the TGI (SF-539 CNS) of the same compound?
A: 8.49 µM

Q: What about the GI50 (NCI-H460 lung) of the same compound?
A: 3.43 µM

Q: What about the TGI (NCI-H460 lung) of the same compound?
A: 14.8 µM

Q: What about the GI50 (HCT-116 colon) of the same compound?
A: 2.26 µM

Q: And the TGI (HCT-116 colon)?
A: 5.34 µM

Q: What about the GI50 (EKVX NSCLC) of the same compound?
A: 2.62 µM

Q: What about the TGI (EKVX NSCLC) of the same compound?
A: 20.2 µM

Q: And the GI50 (786-0 renal)?
A: 1.96 µM

Q: And the TGI (786-0 renal)?
A: 3.69 µM

Q: What about the GI50 (NCI/ADR-RES ovarian) of the same compound?
A: 2.24 µM

Q: And the TGI (NCI/ADR-RES ovarian)?
A: 5.15 µM

Q: And the GI50 (KM12 colon)?
A: 5.55 µM

Q: What about the TGI (KM12 colon) of the same compound?
A: > 100 µM

Q: And the GI50 (OVCAR-5 ovarian)?
A: 5.44 µM

Q: What about the TGI (OVCAR-5 ovarian) of the same compound?
A: 36.7 µM

Q: And the GI50 (LOX IMVI melanoma)?
A: 3.08 µM

Q: And the TGI (LOX IMVI melanoma)?
A: 10.5 µM

Q: And the GI50 (MDA-MB-435)?
A: 4.96 µM

Q: And the TGI (MDA-MB-435)?
A: > 100 µM

Q: What about the GI50 (M14 melanoma) of the same compound?
A: 5.8 µM

Q: What about the TGI (M14 melanoma) of the same compound?
A: 46.7 µM

Q: What about the GI50 (SW-620 colon) of the same compound?
A: 3.7 µM

Q: What about the TGI (SW-620 colon) of the same compound?
A: 16.6 µM

Q: And the GI50 (NCI-H23 lung)?
A: 3.56 µM

Q: And the TGI (NCI-H23 lung)?
A: 19.5 µM

Q: What about the GI50 (MCF7 breast) of the same compound?
A: 3.66 µM

Q: What about the TGI (MCF7 breast) of the same compound?
A: 42.5 µM

Q: What about the GI50 (K-562 leukemia) of the same compound?
A: 4.62 µM

Q: What about the TGI (K-562 leukemia) of the same compound?
A: > 100 µM

Q: What about the GI50 (HT29 colon) of the same compound?
A: 7.21 µM

Q: What about the TGI (HT29 colon) of the same compound?
A: 41.1 µM

Q: And the GI50 (A498 renal)?
A: 2.67 µM

Q: And the TGI (A498 renal)?
A: 5.96 µM

Q: What about the GI50 (SK-MEL-28 melanoma) of the same compound?
A: 4.83 µM

Q: And the TGI (SK-MEL-28 melanoma)?
A: > 100 µM

Q: And the GI50 (SNB-19 CNS)?
A: 3.09 µM

Q: What about the TGI (SNB-19 CNS) of the same compound?
A: 10.4 µM

Q: What about the GI50 (UO-31 renal) of the same compound?
A: 1.38 µM

Q: What about the TGI (UO-31 renal) of the same compound?
A: 6.4 µM

Q: What about the GI50 (OVCAR-8 ovarian) of the same compound?
A: 3.11 µM

Q: And the TGI (OVCAR-8 ovarian)?
A: 10.5 µM

Q: What about the GI50 (SK-OV-3 ovarian) of the same compound?
A: 3.52 µM

Q: And the TGI (SK-OV-3 ovarian)?
A: 22.2 µM

Q: What about the GI50 (HCT-15 colon) of the same compound?
A: 3.26 µM

Q: And the TGI (HCT-15 colon)?
A: 17.3 µM

Q: What about the GI50 (CCRF-CEM leukemia) of the same compound?
A: 6.48 µM

Q: And the TGI (CCRF-CEM leukemia)?
A: > 100 µM

Q: What about the GI50 (MOLT-4 leukemia) of the same compound?
A: 7.27 µM

Q: And the TGI (MOLT-4 leukemia)?
A: > 100 µM

Q: What about the GI50 (UACC-257 melanoma) of the same compound?
A: 17.4 µM

Q: What about the TGI (UACC-257 melanoma) of the same compound?
A: > 100 µM

Q: What about the GI50 (HL-60(TB) leukemia) of the same compound?
A: 41.1 µM

Q: What about the TGI (HL-60(TB) leukemia) of the same compound?
A: > 100 µM

Q: And the GI50 (BT-549 breast)?
A: 4.43 µM

Q: And the TGI (BT-549 breast)?
A: 21.8 µM

Q: What about the GI50 (SK-MEL-5 melanoma) of the same compound?
A: 11.5 µM

Q: What about the TGI (SK-MEL-5 melanoma) of the same compound?
A: 48.3 µM

Q: What about the GI50 (ACHN renal) of the same compound?
A: 2.89 µM

Q: And the TGI (ACHN renal)?
A: 10.2 µM

Q: What about the GI50 (HCC-2998 colon) of the same compound?
A: 6.93 µM

Q: And the TGI (HCC-2998 colon)?
A: > 100 µM

Q: And the GI50 (RXF 393 renal)?
A: 3.05 µM

Q: And the TGI (RXF 393 renal)?
A: 8.74 µM

Q: And the GI50 (COLO 205 colon)?
A: 4.87 µM

Q: And the TGI (COLO 205 colon)?
A: 29.5 µM

Q: What about the GI50 (SF-295 CNS) of the same compound?
A: 3.35 µM

Q: What about the TGI (SF-295 CNS) of the same compound?
A: 12.6 µM

Q: And the GI50 (HOP-92 NSCLC)?
A: 1.06 µM

Q: And the TGI (HOP-92 NSCLC)?
A: 4.14 µM

Q: What about the GI50 (MDA-MB-468 breast) of the same compound?
A: 1.71 µM

Q: What about the TGI (MDA-MB-468 breast) of the same compound?
A: 5.35 µM

Q: What about the GI50 (TK-10 renal) of the same compound?
A: 6.47 µM

Q: What about the TGI (TK-10 renal) of the same compound?
A: 16.5 µM

Q: And the GI50 (SK-MEL-2 melanoma)?
A: 13.3 µM

Q: And the TGI (SK-MEL-2 melanoma)?
A: 59.4 µM
